Assay results published in ChEMBL document CHEMBL1152426, “Synthetic strategies toward carbocyclic purine-pyrimidine hybrid nucleosides” (Bioorg Med Chem, 2009).
Active and inactive are the calls of the source. The calls are words filed in the database; no cut-off is given here.

What was measured:
[1] = Inhibition of S-adenosylhomocystein hydrolase
[2] = Inhibition of DNA methyltransferase
[3] = Inhibition of S-adenosylhomocystein hydrolase in presence of 10 uM of S-adenosylhomocystein
[4] = Inhibition of S-adenosylhomocystein hydrolase at 45 uM in presence of S-adenosylhomocystein

Question: With `O=c1[nH]c(=O)n([C@@H]2CC[C@@H](O)[C@H]2O)c2nc[nH]c12` as the molecule, how does the Ki [1] read?
Answer: 5 µM

Question: And the Activity [2]?
Answer: inactive

Question: And the Activity [3]?
Answer: Active

Question: And the Activity [4]?
Answer: Active

Question: Which Activity [1] does the source give for `O=c1[nH]c(=O)n([C@@H]2CC[C@@H](O)[C@H]2O)c2ncsc12` here?
Answer: inactive

Question: And the Activity [2]?
Answer: inactive
